From the OligoGym collection
HELM strings list units from the 5' end as sugar, base in round brackets, then linkage (d deoxyribose, r ribose, m 2'-O-methyl, p phosphodiester). Strings are as the collection lists them, not checked against the first reports. ss, as = sense and antisense strand; [lna] = locked nucleic acid (LNA); [una] = unlocked nucleic acid; [fl2r] = 2'-fluoro

Conditions: siRNA
Further: test system not given here.

Substance	target mRNA knockdown
RNA1{m(U)p.r(U)p.m(A)p.r(A)p.m(A)p.r(G)p.m(G)p.r(G)p.m(C)p.r(G)p.m(A)p.r(G)p.m(A)p.r(A)p.m(G)p.r(A)p.m(C)p.r(C)p.m(G)p.r(T)p.r(T)}|RNA2{r(C)p.r(G)p.r(G)p.r(U)p.r(C)p.r(U)p.r(U)p.r(C)p.r(U)p.r(C)p.r(G)p.r(C)p.r(C)p.r(C)p.r(U)p.r(U)p.r(U)p.r(A)p.r(A)p.r(T)p.r(T)}$$$RNA1{StrandType:ss}|RNA2{StrandType:as}$	67%
RNA1{[lna](T)p.r(G)p.[lna](A)p.r(G)p.[lna](A)p.r(G)p.r(A)p.r(A)p.[lna](A)p.r(G)p.r(C)p.[lna](A)p.r(C)p.[lna](A)p.r(G)p.r(A)p.[lna](A)p.r(A)p.r(A)p.[lna](T)p.[lna](T)}|RNA2{r(U)p.r(U)p.r(U)p.r(U)p.r(C)p.r(U)p.r(G)p.r(U)p.r(G)p.r(C)p.r(U)p.r(U)p.r(U)p.r(C)p.r(U)p.r(C)p.r(U)p.r(C)p.r(A)p.r(T)p.r(T)}$$$RNA1{StrandType:ss}|RNA2{StrandType:as}$	68%
RNA1{r(A)p.r(C)p.r(G)p.r(U)p.r(C)p.r(A)p.r(C)p.r(C)p.r(G)p.r(A)p.r(G)p.r(G)p.r(A)p.r(G)p.r(A)p.r(A)p.r(G)p.m(U)p.r(A)p.r(T)p.r(T)}|RNA2{r(U)p.r(A)p.r(C)p.r(U)p.r(U)p.r(C)p.r(U)p.r(C)p.r(C)p.r(U)p.r(C)p.r(G)p.r(G)p.r(U)p.r(G)p.r(A)p.r(C)p.r(G)p.r(U)p.r(T)p.r(T)}$$$RNA1{StrandType:ss}|RNA2{StrandType:as}$	69%
RNA1{m(G)p.m(C)p.m(A)p.m(G)p.m(C)p.m(A)p.m(C)p.m(G)p.m(A)p.m(C)p.m(U)p.m(U)p.m(C)p.m(U)p.m(U)p.m(C)p.m(A)p.m(A)p.m(G)p.r(T)p.r(T)}|RNA2{r(C)p.r(U)p.r(U)p.r(G)p.r(A)p.r(A)p.r(G)p.r(A)p.r(A)p.r(G)p.r(U)p.r(C)p.r(G)p.r(U)p.r(G)p.r(C)p.r(U)p.r(G)p.r(C)p.r(T)p.r(T)}$$$RNA1{StrandType:ss}|RNA2{StrandType:as}$	25%
RNA1{r(U)p.r(C)p.r(U)p.r(C)p.r(G)p.r(U)p.r(A)p.r(A)p.r(G)p.r(G)p.r(A)p.r(C)p.r(G)p.r(A)p.r(A)p.r(A)p.r(C)p.r(G)p.r(A)p.r(T)p.r(T)}|RNA2{r(U)p.r(C)p.r(G)p.r(U)p.r(U)p.r(U)p.r(C)p.r(G)p.r(U)p.r(C)p.r(C)p.r(U)p.m(U)p.r(A)p.r(C)p.r(G)p.r(A)p.r(G)p.r(A)p.r(T)p.r(T)}$$$RNA1{StrandType:ss}|RNA2{StrandType:as}$	55%
RNA1{[lna](G)p.r(C)p.r(A)p.r(G)p.r(C)p.r(A)p.r(C)p.r(G)p.r(A)p.r(C)p.r(U)p.r(U)p.r(C)p.r(U)p.r(U)p.r(C)p.r(A)p.r(A)p.r(G)p.r(U)p.r(U)}|RNA2{r(C)p.m(U)p.r(U)p.r(G)p.r(A)p.r(A)p.r(G)p.r(A)p.r(A)p.r(G)p.r(U)p.r(C)p.r(G)p.r(U)p.r(G)p.r(C)p.r(U)p.r(G)p.r(C)p.r(U)p.r(U)}$$$RNA1{StrandType:ss}|RNA2{StrandType:as}$	68.6%
RNA1{r(A)p.r(A)p.r(A)p.r(G)p.r(G)p.r(G)p.r(G)p.r(A)p.r(G)p.r(U)p.m(U)p.r(G)p.r(C)p.m(U)p.r(G)p.r(G)p.r(A)p.r(A)p.r(G)p.r(T)p.r(T)}|RNA2{r(C)p.r(U)p.r(U)p.r(C)p.m(C)p.r(A)p.r(G)p.m(C)p.r(A)p.r(A)p.r(C)p.r(U)p.r(C)p.r(C)p.r(C)p.r(C)p.r(U)p.r(U)p.r(U)p.r(T)p.r(T)}$$$RNA1{StrandType:ss}|RNA2{StrandType:as}$	74%
RNA1{m(A)p.r(C)p.m(G)p.r(U)p.m(C)p.r(A)p.m(C)p.r(C)p.m(G)p.r(A)p.m(G)p.r(G)p.m(A)p.r(G)p.m(A)p.r(A)p.m(G)p.r(U)p.m(A)p.r(T)p.r(T)}|RNA2{r(U)p.r(A)p.r(C)p.r(U)p.r(U)p.r(C)p.r(U)p.r(C)p.r(C)p.r(U)p.r(C)p.r(G)p.r(G)p.r(U)p.r(G)p.r(A)p.r(C)p.r(G)p.r(U)p.r(T)p.r(T)}$$$RNA1{StrandType:ss}|RNA2{StrandType:as}$	36%
RNA1{r(A)p.r(U)p.r(C)p.r(U)p.r(G)p.r(A)p.r(A)p.r(G)p.r(A)p.r(A)p.r(G)p.r(G)p.r(A)p.r(G)p.r(A)p.r(A)p.r(A)p.r(A)p.r(A)p.d(T)p.d(T)}|RNA2{[lna](T)p.r(U)p.r(U)p.r(U)p.r(U)p.r(C)p.r(U)p.r(C)p.r(C)p.r(U)p.r(U)p.r(C)p.r(U)p.r(U)p.r(C)p.r(A)p.r(G)p.r(A)p.r(U)p.[lna](T)p.[lna](T)}$$$RNA1{StrandType:ss}|RNA2{StrandType:as}$	45%
RNA1{m(G)p.r(A)p.m(A)p.r(G)p.m(A)p.r(G)p.m(U)p.r(U)p.m(A)p.r(A)p.m(C)p.r(C)p.m(C)p.r(G)p.m(G)p.r(G)p.m(A)p.r(C)p.r(U)p.r(T)p.r(T)}|RNA2{r(A)p.r(G)p.r(U)p.r(C)p.r(C)p.r(C)p.r(G)p.r(G)p.r(G)p.r(U)p.r(U)p.r(A)p.r(A)p.r(C)p.r(U)p.r(C)p.r(U)p.r(U)p.r(C)p.r(T)p.r(T)}$$$RNA1{StrandType:ss}|RNA2{StrandType:as}$	17%
RNA1{m(U)p.r(A)p.r(A)p.r(A)p.r(C)p.r(U)p.r(U)p.r(U)p.r(G)p.r(G)p.r(G)p.r(G)p.r(A)p.r(A)p.r(G)p.r(G)p.r(G)p.r(A)p.r(G)p.r(T)p.r(T)}|RNA2{r(C)p.r(U)p.r(C)p.m(C)p.r(C)p.r(U)p.r(U)p.r(C)p.r(C)p.r(C)p.r(C)p.r(A)p.r(A)p.r(A)p.r(G)p.r(U)p.r(U)p.r(U)p.r(A)p.r(T)p.r(T)}$$$RNA1{StrandType:ss}|RNA2{StrandType:as}$	72%
RNA1{r(G)p.r(G)p.r(A)p.r(C)p.m(U)p.r(A)p.r(C)p.m(U)p.r(A)p.r(A)p.r(C)p.r(C)p.r(U)p.r(C)p.m(C)p.r(A)p.r(G)p.r(U)p.r(U)p.r(T)p.r(T)}|RNA2{r(A)p.r(A)p.r(C)p.m(U)p.r(G)p.r(G)p.r(A)p.r(G)p.r(G)p.r(U)p.m(U)p.r(A)p.r(G)p.m(U)p.r(A)p.r(G)p.r(U)p.r(C)p.r(C)p.r(T)p.r(T)}$$$RNA1{StrandType:ss}|RNA2{StrandType:as}$	69%
RNA1{r(G)p.r(U)p.r(A)p.r(U)p.r(G)p.r(A)p.r(C)p.r(C)p.r(G)p.r(A)p.r(C)p.r(U)p.r(A)p.r(C)p.r(G)p.r(C)p.r(G)p.r(U)p.r(A)p.r(T)p.r(T)}|RNA2{r(U)p.r(U)p.r(C)p.r(A)p.r(G)p.r(U)p.r(G)p.r(U)p.r(G)p.r(A)p.r(U)p.r(G)p.r(A)p.r(C)p.r(A)p.r(C)p.r(U)p.[una](U)p.r(G)p.r(T)p.r(T)}$$$RNA1{StrandType:ss}|RNA2{StrandType:as}$	91%
RNA1{r(G)p.r(A)p.r(C)p.r(G)p.r(U)p.r(A)p.r(A)p.r(A)p.r(C)p.r(G)p.r(G)p.r(C)p.r(C)p.r(A)p.r(C)p.r(A)p.r(A)p.r(G)p.r(U)p.[lna](T)p.[lna](C)}|RNA2{[fl2r](A)p.m(C)p.[fl2r](U)p.m(U)p.[fl2r](G)p.m(U)p.[fl2r](G)p.m(G)p.[fl2r](C)p.m(C)p.[fl2r](G)p.m(U)p.[fl2r](U)p.m(U)p.[fl2r](A)p.m(C)p.[fl2r](G)p.m(U)p.[fl2r](C)p.m(G)p.[fl2r](C)}$$$RNA1{StrandType:ss}|RNA2{StrandType:as}$	81.2%
RNA1{r(C)p.r(U)p.r(U)p.r(A)p.r(C)p.r(G)p.r(C)p.r(U)p.r(G)p.r(A)p.r(G)p.r(U)p.r(A)p.r(C)p.r(U)p.r(U)p.r(C)p.r(G)p.r(A)p.r(T)p.r(T)}|RNA2{r(U)p.r(C)p.r(G)p.r(A)p.r(A)p.r(G)p.r(U)p.r(A)p.r(C)p.r(U)p.r(C)p.[lna](A)p.r(G)p.r(C)p.r(G)p.r(U)p.r(A)p.r(A)p.r(G)p.r(T)p.r(T)}$$$RNA1{StrandType:ss}|RNA2{StrandType:as}$	89%
RNA1{[fl2r](A)p.r(G)p.r(A)p.[fl2r](G)p.r(A)p.[fl2r](A)p.r(G)p.[fl2r](G)p.[fl2r](G)p.r(C)p.r(G)p.[fl2r](U)p.r(C)p.r(U)p.r(C)p.[fl2r](U)p.r(A)p.[fl2r](C)p.r(A)p.r(T)p.r(T)}|RNA2{r(U)p.r(G)p.r(U)p.r(A)p.r(G)p.r(A)p.r(G)p.r(A)p.r(C)p.r(G)p.r(C)p.r(C)p.r(C)p.r(U)p.r(U)p.r(C)p.r(U)p.r(C)p.r(U)p.r(T)p.r(T)}$$$RNA1{StrandType:ss}|RNA2{StrandType:as}$	75%
RNA1{[fl2r](A)p.r(G)p.[fl2r](A)p.r(G)p.[fl2r](A)p.r(G)p.[fl2r](G)p.r(U)p.[fl2r](G)p.r(G)p.[fl2r](A)p.r(G)p.[fl2r](G)p.r(U)p.[fl2r](A)p.r(U)p.[fl2r](C)p.r(U)p.[fl2r](C)p.r(T)p.r(T)}|RNA2{r(G)p.[fl2r](A)p.r(G)p.[fl2r](A)p.r(U)p.[fl2r](A)p.r(C)p.r(C)p.r(U)p.r(C)p.r(C)p.[fl2r](A)p.r(C)p.r(C)p.r(U)p.r(C)p.r(U)p.r(C)p.r(U)p.r(T)p.r(T)}$$$RNA1{StrandType:ss}|RNA2{StrandType:as}$	68%
RNA1{[fl2r](G)p.m(A)p.[fl2r](C)p.m(G)p.[fl2r](U)p.m(A)p.[fl2r](A)p.m(A)p.[fl2r](C)p.m(G)p.[fl2r](G)p.m(C)p.[fl2r](C)p.m(A)p.[fl2r](C)p.m(A)p.[fl2r](A)p.m(G)p.[fl2r](U)p.m(U)p.[fl2r](C)}|RNA2{[fl2r](A)p.m(C)p.[fl2r](U)p.m(U)p.[fl2r](G)p.m(U)p.[fl2r](G)p.m(G)p.[fl2r](C)p.m(C)p.[fl2r](G)p.m(U)p.[fl2r](U)p.m(U)p.[fl2r](A)p.m(C)p.[fl2r](G)p.m(U)p.[fl2r](C)p.m(G)p.[fl2r](C)}$$$RNA1{StrandType:ss}|RNA2{StrandType:as}$	23.8%
RNA1{r(A)p.r(C)p.r(C)p.r(U)p.[fl2r](U)p.r(A)p.r(A)p.r(G)p.r(G)p.r(A)p.r(C)p.[fl2r](C)p.[fl2r](A)p.r(C)p.r(C)p.r(G)p.r(G)p.r(A)p.r(U)p.r(T)p.r(T)}|RNA2{r(A)p.r(U)p.r(C)p.r(C)p.r(G)p.r(G)p.[fl2r](U)p.[fl2r](G)p.r(G)p.r(U)p.r(C)p.r(C)p.r(U)p.[fl2r](U)p.[fl2r](A)p.r(A)p.r(G)p.r(G)p.r(U)p.r(T)p.r(T)}$$$RNA1{StrandType:ss}|RNA2{StrandType:as}$	70%
RNA1{m(C)p.r(G)p.m(G)p.r(A)p.m(U)p.r(C)p.m(U)p.r(A)p.m(C)p.r(A)p.m(C)p.r(C)p.m(U)p.r(U)p.m(C)p.r(A)p.m(A)p.r(G)p.m(A)p.r(T)p.r(T)}|RNA2{r(U)p.r(C)p.r(U)p.r(U)p.r(G)p.r(A)p.r(A)p.r(G)p.r(G)p.r(U)p.r(G)p.r(U)p.m(A)p.r(G)p.m(A)p.r(U)p.m(C)p.r(C)p.m(G)p.r(T)p.r(T)}$$$RNA1{StrandType:ss}|RNA2{StrandType:as}$	46%
